Reference: patent US20240059698A1 (Accutar Biotechnology Inc., priority 2022, published 2024)

How the values were obtained:
[1] = test system: HCC827-YVMA cells (human ERBB2 exon20 insertion mutant A775_G776ins YVMA); experiment: Cell growth inhibition (CellTiter-Glo), HCC827-YVMA; assay type: cell-based; settings: 72 h, HCC827-YVMA cells, 3 days, CellTiter-Glo, read-out: Cell growth inhibition, GI50 (nM) HCC827-YVMA
Description: (§1) Generation of HCC827-SVD, HCC827-ASV, and HCC827-YVMA cell lines. The HCC827-SVD cell line was generated by first transducing HCC827 cells (ATCC) with lentiviral particles expressing codon-optimized human EGFR exon 20 insertion mutant D770_N771insSVD, and then selecting under 5 µg/mL puromycin treatment for a week. The resulting cells were further transduced with lentiviral particles carrying EGFR sgRNA and CAS9 to knockout the endogenous alleles of EGER and then selected under 500 µg/mL hygromycin B treatment for two weeks. The limiting dilution approach was used to subsequently generate the single clone of the HCC827-SVD stable cell line. Endogenous EGFR knockout was confirmed by Sanger sequencing of cell genomic DNA, and expression of exogenous mutant EGFR was verified by Western blot analysis.
HCC827-ASV and HCC827-YVMA cell lines were generated in a similar approach as HCC827-SVD, except that HCC827 cells (ATCC) were first transduced with lentiviral particles expressing codon-optimized human EGFR exon 20 insertion mutant V769_D770insASV and human ERBB2 exon20 insertion mutant A775_G776ins YVMA, respectively.
(§2) 2. Cell Growth Inhibition for HCC827, HCC827-SVD, HCC827-ASV, HCC827-YVMA, and A431.
(§3) HCC827(ATCC), HCC827-SVD, HCC827-ASV, and HCC827-YVMA cells were seeded in 96-well plates at 5000 cells/well in 90 μL of RPMI growth medium containing 10% FBS and 1% Penicillin Streptomycin. A431 (ATCC) cells were seeded in 96-well plates at 5000 cells/well in 90 μL of DMEM growth medium containing 10% FBS and 1% Penicillin Streptomycin. Cells were incubated at 37° C. overnight and then administered with 10 μL 10× test compounds prepared in the growth medium at various concentrations. After administration of the compounds, cells were incubated at 37° C. for 3 days. Before the CellTiter-Glo assay, the plates were equilibrated at room temperature for approximately 30 minutes. 100 ul of CellTiter-Glo reagent (Promega) was added to each well. The plates were then incubated at room temperature for 10 minutes and luminescence was recorded by the EnSight® multimode plate reader (PerkinElmer). Table 7 listed selected compounds in cellular growth assay.

[2] = test system: HCC827-SVD cells (human EGFR exon 20 insertion mutant D770_N771insSVD); experiment: Cell growth inhibition (CellTiter-Glo), HCC827-SVD; assay type: cell-based; settings: 72 h, 3 days
Description: as §1, §2, §3

SMILES | GI50 [1] | GI50 [2]
C=CC(=O)N1CCC(c2c[nH]c3ncnc(Nc4ccc(OCc5ncccc5Cl)c(Cl)c4)c23)CC1 [Compound 35, 1-(4-(4-((3-chloro-4-((3-chloropyridin-2-yl)methoxy)phenyl)amino)-7H-pyrrolo[2,3-d]pyrimidin-5-yl)piperidin-1-yl)prop-2-en-1-one] | < 50 nM | < 50 nM
C=CC(=O)N1CCC(c2c[nH]c3ncnc(Nc4ccc(OCc5cccc(F)n5)c(Cl)c4)c23)CC1 [Compound 36, 1-(4-(4-((3-chloro-4-((6-fluoropyridin-2-yl)methoxy)phenyl)amino)-7H-pyrrolo[2,3-d]pyrimidin-5-yl)piperidin-1-yl)prop-2-en-1-one] | < 50 nM | < 50 nM
C=CC(=O)N1CCC(c2c[nH]c3ncnc(Nc4ccc(OCc5ncccc5F)c(Cl)c4)c23)CC1 [Compound 37, 1-(4-(4-((3-chloro-4-((3-fluoropyridin-2-yl)methoxy)phenyl)amino)-7H-pyrrolo[2,3-d]pyrimidin-5-yl)piperidin-1-yl)prop-2-en-1-one] | < 50 nM | < 50 nM
C=CC(=O)N1CCC(c2c[nH]c3ncnc(Nc4ccc(Oc5ccnc(NC(=O)C6CCCC6)c5)c(Cl)c4)c23)CC1 [Compound 38, N-[4-[2-chloro-4-[[5-(1-prop-2-enoyl-4-piperidyl)-7H-pyrrolo[2,3-d]pyrimidin-4-yl]amino]phenoxy]-2-pyridyl]cyclopentanecarboxamide] | 50 to 200 nM | 50 to 200 nM
C=CC(=O)N1CCC(c2c[nH]c3ncnc(Nc4ccc(Oc5ccnc(N6CCC(C(F)(F)F)C6)c5)c(Cl)c4)c23)CC1 (stereo not shown) [Compound 43, 1-[4-[4-[3-chloro-4-[[2-[3-(trifluoromethyl)pyrrolidin-1-yl]-4-pyridyl]oxy]anilino]-7H-pyrrolo[2,3-d]pyrimidin-5-yl]-1-piperidyl]prop-2-en-1-one] | 50 to 200 nM | 50 to 200 nM
C=CC(=O)N1CCC(c2c[nH]c3ncnc(Nc4ccc(Oc5ccnc(NCC(C)C)n5)cc4F)c23)CC1 [Compound 45, 1-(4-(4-((2-fluoro-4-((2-(isoButylamino)pyrimidin-4-yl)oxy)phenyl)amino)-7H-pyrrolo[2,3-d]pyrimidin-5-yl)piperidin-1-yl)prop-2-en-1-one] | 50 to 200 nM | 50 to 200 nM
C=CC(=O)N1CCC(c2c[nH]c3ncnc(Nc4ccc(Oc5ccnc6cc[nH]c56)c(Cl)c4)c23)CC1 [Compound 46, 1-(4-(4-((4-((1H-pyrrolo[3,2-b]pyridin-7-yl)oxy)-3-chlorophenyl)amino)-7H-pyrrolo[2,3-d]pyrimidin-5-yl)piperidin-1-yl)prop-2-en-1-one] | 50 to 200 nM | 50 to 200 nM
C=CC(=O)N1CCC(c2c[nH]c3ncnc(Nc4ccc(OCc5cnc(Cn6cncn6)nc5)c(Cl)c4)c23)CC1 [Compound 47, 1-(4-(4-((4-((2-((1H-1,2,4-triazol-1-yl)methyl)pyrimidin-5-yl)methoxy)-3-chlorophenyl)amino)-7H-pyrrolo[2,3-d]pyrimidin-5-yl)piperidin-1-yl)prop-2-en-1-one] | 50 to 200 nM | < 50 nM
C=CC(=O)N1CCC(c2c[nH]c3ncnc(Nc4ccc(Oc5ccnc(Nc6ccccn6)c5)c(Cl)c4)c23)CC1 [Compound 49, 1-(4-(4-((3-chloro-4-((2-(pyridin-2-ylamino)pyridin-4-yl)oxy)phenyl)amino)-7H-pyrrolo[2,3-d]pyrimidin-5-yl)piperidin-1-yl)prop-2-en-1-one] | < 50 nM | 50 to 200 nM
C=CC(=O)N1CCC(c2c[nH]c3ncnc(Nc4ccc(OCc5nncs5)c(Cl)c4)c23)CC1 [Compound 52, 1-(4-(4-((4-((1,3,4-thiadiazol-2-yl)methoxy)-3-chlorophenyl)amino)-7H-pyrrolo[2,3-d]pyrimidin-5-yl)piperidin-1-yl)prop-2-en-1-one] | < 50 nM | < 50 nM
C=CC(=O)N1CCC(c2c[nH]c3ncnc(Nc4ccc(CN(C)c5cnccn5)c(Cl)c4)c23)CC1 [Compound 54, 1-(4-(4-((3-chloro-4-((methyl(pyrazin-2-yl)amino)methyl)phenyl)amino)-7H-pyrrolo[2,3-d]pyrimidin-5-yl)piperidin-1-yl)prop-2-en-1-one] | < 50 nM | < 50 nM

Results, then the molecule that gave them:

GI50 [1] | GI50 [2] | SMILES
< 50 nM | < 50 nM | C=CC(=O)N1CCC(c2c[nH]c3ncnc(Nc4ccc(OCc5ccccn5)c(Br)c4)c23)CC1 [Compound 39, 1-(4-(4-((3-bromo-4-(pyridin-2-ylmethoxy)phenyl)amino)-7H-pyrrolo[2,3-d]pyrimidin-5-yl)piperidin-1-yl)prop-2-en-1-one]
< 50 nM | < 50 nM | C=CC(=O)N1CCC(c2c[nH]c3ncnc(Nc4ccc(Oc5ccnc(Nc6ccccn6)c5)c(Cl)c4F)c23)CC1 [Compound 40, 1-(4-(4-((3-chloro-2-fluoro-4-((2-(pyridin-2-ylamino)pyridin-4-yl)oxy)phenyl)amino)-7H-pyrrolo[2,3-d]pyrimidin-5-yl)piperidin-1-yl)prop-2-en-1-one]
200 to 1000 nM | 50 to 200 nM | C=CC(=O)N1CCC(c2c[nH]c3ncnc(Nc4ccc(Oc5ccn(-c6ccc7cc[nH]c7n6)n5)cc4F)c23)CC1 [Compound 41, 1-(4-(4-((4-((1-(1H-pyrrolo[2,3-b]pyridin-6-yl)-1H-pyrazol-3-yl)oxy)-2-fluorophenyl)amino)-7H-pyrrolo[2,3-d]pyrimidin-5-yl)piperidin-1-yl)prop-2-en-1-one]
200 to 1000 nM | 200 to 1000 nM | C=CC(=O)N1CCC(c2c[nH]c3ncnc(Nc4ccc(Oc5ccnc(NCc6ccccn6)c5)cc4F)c23)CC1 [Compound 42, 1-(4-(4-((2-fluoro-4-((2-((pyridin-2-ylmethyl)amino)pyridin-4-yl)oxy)phenyl)amino)-7H-pyrrolo[2,3-d]pyrimidin-5-yl)piperidin-1-yl)prop-2-en-1-one]
200 to 1000 nM | 200 to 1000 nM | C=CC(=O)N1CCC(c2c[nH]c3ncnc(Nc4ccc(Oc5ccnc(Nc6ccccn6)n5)cc4F)c23)CC1 [Compound 44, 1-(4-(4-((2-fluoro-4-((2-(pyridin-2-ylamino)pyrimidin-4-yl)oxy)phenyl)amino)-7H-pyrrolo[2,3-d]pyrimidin-5-yl)piperidin-1-yl)prop-2-en-1-one]
50 to 200 nM | 50 to 200 nM | C=CC(=O)N1CCC(c2c[nH]c3ncnc(Nc4ccc(Oc5ccnc(-c6ccn(C)n6)c5)c(Cl)c4)c23)CC1 [Compound 48, 1-(4-(4-((3-chloro-4-((2-(1-methyl-1H-pyrazol-3-yl)pyridin-4-yl)oxy)phenyl)amino)-7H-pyrrolo[2,3-d]pyrimidin-5-yl)piperidin-1-yl)prop-2-en-1-one]
50 to 200 nM | 200 to 1000 nM | C=CC(=O)N1CCC(c2c[nH]c3ncnc(Nc4ccc(Oc5ccnc(N6CCC(C(F)(F)F)C6)n5)cc4F)c23)CC1 (stereo not shown) [Compound 50, 1-(4-(4-((2-fluoro-4-((2-(3-(trifluoromethyl)pyrrolidin-1-yl)pyrimidin-4-yl)oxy)phenyl)amino)-7H-pyrrolo[2,3-d]pyrimidin-5-yl)piperidin-1-yl)prop-2-en-1-one]
200 to 1000 nM | 200 to 1000 nM | C=CC(=O)N1CCC(c2c[nH]c3ncnc(Nc4ccc(Oc5ccnc(C6CCC6)c5)cc4F)c23)CC1 [Compound 51, 1-(4-(4-((4-((2-cycloButylpyridin-4-yl)oxy)-2-fluorophenyl)amino)-7H-pyrrolo[2,3-d]pyrimidin-5-yl)piperidin-1-yl)prop-2-en-1-one]
200 to 1000 nM | 200 to 1000 nM | C=CC(=O)N1CCC(c2c[nH]c3ncnc(Nc4ccc(Oc5ccnc(-c6cccc(C(F)(F)F)c6)c5)cc4F)c23)CC1 [Compound 53, 1-(4-(4-((2-fluoro-4-((2-(3-(trifluoromethyl)phenyl)pyridin-4-yl)oxy)phenyl)amino)-7H-pyrrolo[2,3-d]pyrimidin-5-yl)piperidin-1-yl)prop-2-en-1-one]
< 50 nM | < 50 nM | C=CC(=O)N1CCC(c2c[nH]c3ncnc(Nc4ccc(OCC(=O)NC(C)C)c(Cl)c4)c23)CC1 [Compound 55, 2-(4-((5-(1-acryloylpiperidin-4-yl)-7H-pyrrolo[2,3-d]pyrimidin-4-yl)amino)-2-chlorophenoxy)-N-isopropylacetamide]
< 50 nM | – | C=CC(=O)N1CCC(c2c[nH]c3ncnc(Nc4ccc(Oc5cccc(C(F)(F)F)c5)c(Cl)c4)c23)CC1 [Compound 225, 1-[4-[4-[3-chloro-4-[3-(trifluoromethyl)phenoxy]anilino]-7H-pyrrolo[2,3-d]pyrimidin-5-yl]-1-piperidyl]prop-2-en-1-one]
